Reference: patent US20240150423A1, “GLP-1 ANALOGUE-MODIFIED DIMERS WITH DIFFERENT CONFIGURATIONS, PREPARATION METHOD THEREOF, AND APPLICATION THEREOF IN TREATMENT OF TYPE II DIABETES” (Nanjing Finepeptide Biopharmaceutical Co.,Ltd, priority 2019, published 2024)

Assays:
[1] = T2D model treatment: body weight and organ weights; format: in vivo, C57B16/J mice; details: 2G3 study, 35 days
Protocol: C57B16/J mice were placed in an SPF-level environment with a standard diet. All experimental operations were performed in accordance with the guidelines of the ethics and uses of experimental animals. […] The NaCl-PB group served as blank control and the model control group served as the T2D model control. They were injected with NaCl-PB solution. The T2D model group was fed with 60 kcal % high-fat diet (D12492, Changzhou SYSE Bio-tech. Co., Ltd., China) until the end of the experiment. Meanwhile the blank control group maintained standard diet. […] These groups were subjected to a 35-day treatment study on the basis of the high-fat diet. • 1. […] The monomeric peptides were dissolved into a saline solution (pH 6.5) for injection. • 2. […] The models were measured blood glucose at the tail and weight weighted every morning at 9 am. […] In the T2D treatment study, all T2D model mice were injected subcutaneously at the back hip in 100 μl per mouse within 30 min. The blood glucose of the experimental mice was measured every five days and the whole measurement was completed within 40 min. […] No. 8-9695-03-201-1, Novo Nordisk company, Switzerland) until the end of the 35-day experiment. • 3.

KM mice = experiment: Hypoglycemia test in fasted KM mice at multiples of the low dose; format: in vivo; details: 8 and 68 times of low dose, KM mice fasted for 13 hour, within 3 hours after the administration
[2] = high dose 3.378 nmol/100 μL once a day
[3] = low dose 0.375 nmol/100 μL once a day
[4] = medium dose and Liraglutide group 1.126 nmol/100 μL once a day

CCCCCCCCCCCCCCCC(=O)N[C@@H](CCC(=O)NCCCC[C@H](NC(=O)[C@H](C)NC(=O)[C@H](C)NC(=O)[C@H](CCC(N)=O)NC(=O)CNC(=O)[C@H](CCC(=O)O)NC(=O)[C@H](CC(C)C)NC(=O)[C@H](Cc1ccc(O)cc1)NC(=O)[C@H](CSSC[C@H](NC(=O)[C@H](CO)NC(=O)[C@@H](NC(=O)[C@H](CC(=O)O)NC(=O)[C@H](CO)NC(=O)[C@@H](NC(=O)[C@H](Cc1ccccc1)NC(=O)[C@@H](NC(=O)CNC(=O)[C@H](CCC(=O)O)NC(=O)[C@H](C)NC(=O)[C@@H](N)Cc1c[nH]cn1)[C@@H](C)O)[C@@H](C)O)C(C)C)C(=O)N[C@@H](Cc1ccc(O)cc1)C(=O)N[C@@H](CC(C)C)C(=O)N[C@@H](CCC(=O)O)C(=O)NCC(=O)N[C@@H](CCC(N)=O)C(=O)N[C@@H](C)C(=O)N[C@@H](C)C(=O)N[C@@H](CCCCNC(=O)CC[C@H](NC(=O)CCCCCCCCCCCCCCC)C(=O)O)C(=O)N[C@@H](CCC(=O)O)C(=O)N[C@@H](Cc1ccccc1)C(=O)N[C@H](C(=O)N[C@@H](C)C(=O)N[C@@H](Cc1c[nH]c2ccccc12)C(=O)N[C@@H](CC(C)C)C(=O)N[C@H](C(=O)N[C@@H](CCCNC(=N)N)C(=O)NCC(=O)N[C@@H](CCCNC(=N)N)C(=O)NCC(=O)O)C(C)C)[C@@H](C)CC)NC(=O)[C@H](CO)NC(=O)[C@@H](NC(=O)[C@H](CC(=O)O)NC(=O)[C@H](CO)NC(=O)[C@@H](NC(=O)[C@H](Cc1ccccc1)NC(=O)[C@@H](NC(=O)CNC(=O)[C@H](CCC(=O)O)NC(=O)[C@H](C)NC(=O)[C@@H](N)Cc1c[nH]cn1)[C@@H](C)O)[C@@H](C)O)C(C)C)C(=O)N[C@@H](CCC(=O)O)C(=O)N[C@@H](Cc1ccccc1)C(=O)N[C@H](C(=O)N[C@@H](C)C(=O)N[C@@H](Cc1c[nH]c2ccccc12)C(=O)N[C@@H](CC(C)C)C(=O)N[C@H](C(=O)N[C@@H](CCCNC(=N)N)C(=O)NCC(=O)N[C@@H](CCCNC(=N)N)C(=O)NCC(=O)O)C(C)C)[C@@H](C)CC)C(=O)O [2G3 series 20]
Weight of organs, Heart [1, 2]: 0.1235 ± 0.02 g | Weight of organs, Left kidney [1, 2]: 0.1661 ± 0.02 g | Weight of organs, Left testis [1, 2]: 0.1070 ± 0.01 g | Weight of organs, Liver [1, 2]: 1.023 ± 0.12b*c* g | Weight of organs, Lung [1, 2]: 0.1523 ± 0.02 g | Weight of organs, Pancreas [1, 2]: 0.3202 ± 0.07 g | Weight of organs, Right kidney [1, 2]: 0.1640 ± 0.02 g | Weight of organs, Right testis [1, 2]: 0.1060 ± 0.01c* g | Weight of organs, Spleen [1, 2]: 0.0763 ± 0.01 g | Weight of organs, adipose tissue [1, 2]: 1.0047 ± 0.30b* g | Weight of organs, Heart [1, 3]: 0.1199 ± 0.01 g | Weight of organs, Left kidney [1, 3]: 0.1703 ± 0.02 g | Weight of organs, Left testis [1, 3]: 0.1065 ± 0.01 g | Weight of organs, Liver [1, 3]: 1.138 ± 0.18a*c** g | Weight of organs, Lung [1, 3]: 0.1565 ± 0.02 g | Weight of organs, Pancreas [1, 3]: 0.3329 ± 0.05b* g | Weight of organs, Right kidney [1, 3]: 0.1648 ± 0.02 g | Weight of organs, Right testis [1, 3]: 0.1085 ± 0.01c* g | Weight of organs, Spleen [1, 3]: 0.0794 ± 0.02 g | Weight of organs, adipose tissue [1, 3]: 1.2216 ± 0.41a*c* g | Weight of organs, Heart [1, 4]: 0.1207 ± 0.01 g | Weight of organs, Left kidney [1, 4]: 0.1750 ± 0.02c* g | Weight of organs, Left testis [1, 4]: 0.1041 ± 0.01 g | Weight of organs, Liver [1, 4]: 1.048 ± 0.06a*b*c *** g | Weight of organs, Lung [1, 4]: 0.1429 ± 0.02 g | Weight of organs, Pancreas [1, 4]: 0.3115 ± 0.03 g | Weight of organs, Right kidney [1, 4]: 0.1617 ± 0.01 g | Weight of organs, Right testis [1, 4]: 0.1052 ± 0.01c* g | Weight of organs, Spleen [1, 4]: 0.0807 ± 0.01a* g | Weight of organs, adipose tissue [1, 4]: 1.0369 ± 0.44b* g | hypoglycemia (KM mice): did not induce any one of 6 KM mice fasted for 13 hour to produce hypoglycemia
